# Measurements from US9676758B2, “1-heteroaryl-indoline-4-carboxamides as modulators of GPR52 useful for the treatment or prevention of disorders related thereto” (Arena Pharmaceuticals, Inc., priority 2015, dated 2017).
# Columns and labels:
# [1] = Brain penetration (plasma and brain exposure); format: in vivo, mouse; conditions: PO dose 3 mg/kg; male C57BL6 mice; 60 minute time point
# Protocol: Plasma and brain exposure were evaluated to determine the brain penetration of compounds described herein. Male C57BL6 mice were administered a single per oral (PO) dose of compound at 3 or 10 mg/kg (as a free base) formulated in 20% HPCD in 0.9% NaCl. Blood and brain samples were collected 60 minutes post-dose (n=3-6 animals). Blood was collected via cardiac puncture and stored on ice prior to the separation of plasma by centrifugation. Brains were extracted from the cranium and frozen on dry ice. Tissue samples were stored at approximately −80° C. prior to bioanalytical analysis.
# Analyte plasma and brain concentrations were determined by LC/MS/MS.
# male Sprague-Dawley rats [2] = experiment: Amphetamine-stimulated locomotor activity in rats; format: in vivo, rat; conditions: 0.5, 1, 2, 5, 10, and 20 mg/kg P.O., amphetamine 0.5 mg/kg SC, FIG. 24
# Protocol: Fifteen minutes later, rats were injected with amphetamine (0.5 mg/kg SC in volume of 1 mL/kg). Activity was then measured for 90 minutes.
# male 129Sv/Ev mice = experiment: Prepulse inhibition of the startle response in mice; format: in vivo, mouse; conditions: mice with relatively low PPI; Compound 13 10 mg/kg P.O.; FIG. 25A
# Protocol: (§1) Prepulse inhibition testing was conducted in enclosed startle chambers (Kinder Scientific StartleMonitor System, Kinder Scientific, Poway, Calif.) in which animals were placed into restrainers secured onto startle-sensing plates. A constant background white noise of 65 dB was audible in the chambers throughout testing. […]
# (§2) For each animal, mean startle amplitude for each trial type during the 35-trial block was calculated, and percent prepulse inhibition (% PPI) for each prepulse intensity was calculated as the percent decrease in the mean startle amplitude in response to a given prepulse and 120 dB startle stimulus relative to the mean startle amplitude in response to the 120 dB startle stimulus alone. The % PPI was then calculated for each animal as the mean % PPI across all four prepulse intensities. […]
# male Sprague-Dawley rats [3] = experiment: Prepulse inhibition of the startle response in rats; format: in vivo, rat; conditions: 5 or 20 mg/kg P.O., FIGS. 26A-B
# Protocol: as §1, §2
# male Sprague-Dawley rats [4] = experiment: Rat basal locomotor activity; conditions: 0.5, 1, 2, 5, 10, and 20 mg/kg P.O.
# Protocol: Locomotor activity was assessed in a photocell monitoring caging system (Kinder Scientific MotorMonitor System, Kinder Scientific, Poway, Calif.). Each cage consisted of a standard plastic rodent cage (24×45.5 cm) placed inside a stainless steel frame. Infrared photocell beams were located across the long axis of the frame. Interruption of a photocell beam due to movement of the animal in front of a beam was recorded and used as a measure of ambulatory activity. Photocell beam interruptions were automatically recorded by a computer system. Perforated cage tops were placed on top of the test enclosures during testing.
# Activity was then measured for the following 30 minutes. Animals were naïve to the testing apparatus prior to performing the test. Activity is expressed as the total number of ambulations over the 30 minutes of locomotor testing (i.e., 30-60 minutes post-injection).
compound,measurement,setting,value
"O=C(NCCO)c1cccc2c1CCN2c1cc(Cc2cccc(C(F)(F)F)c2)ccn1 [Compound 13, N-(2-Hydroxyethyl)-1-(4-(3-(trifluoromethyl)benzyl)pyridin-2-yl)indoline-4-carboxamide]",Brain/Plasma Ratio,[1],3.51
same,amphetamine-stimulated locomotion,male Sprague-Dawley rats [2],blocked amphetamine-stimulated locomotion at several doses
same,basal % PPI in 'poor performers',male 129Sv/Ev mice,increased
same,MK-801-induced disruption in % PPI in 'good performers',male Sprague-Dawley rats [3]; MK-801 0.3 mg/kg SC,reversed
same,amphetamine-induced disruption in % PPI in 'good performers',male Sprague-Dawley rats [3]; amphetamine 0.5 mg/kg SC,reversed
same,basal locomotor activity,male Sprague-Dawley rats [4],significant reduction in basal locomotor activity was only seen at the highest dose
